According to patent US8173638B2 (Boehringer Ingelheim International GmbH, priority 2006, dated 2012):
pEC50: −log10 of the molar value. Read-outs that look alike come from different tables or passages of the source.

Target: T1, human CB2R (Homo sapiens, UniProt P34972)
T1 construct: host or cells: CHO cells
Assay: CB2R mediated modulation of cAMP synthesis
Assay type: cell-based
Conditions: for agonistic activity: found through the use of the described assays (CB2 agonists), qualitative statement; for Emax: 0.5 h, read-out: Agonist Efficacy (%)
How it was run: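 CHO cells expressing human CB2R treated with compound 30 min at 37 °C in buffer with 1 mM IBMX, 0.25% BSA and 10 uM forskolin. cAMP measured after lysis by DiscoverX-XS kit.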

[1] = CHO cells expressing human CB2R, cAMP inhibited by 1 uM CP55940 defined as 100%

T1 sequence (P34972 whole entry): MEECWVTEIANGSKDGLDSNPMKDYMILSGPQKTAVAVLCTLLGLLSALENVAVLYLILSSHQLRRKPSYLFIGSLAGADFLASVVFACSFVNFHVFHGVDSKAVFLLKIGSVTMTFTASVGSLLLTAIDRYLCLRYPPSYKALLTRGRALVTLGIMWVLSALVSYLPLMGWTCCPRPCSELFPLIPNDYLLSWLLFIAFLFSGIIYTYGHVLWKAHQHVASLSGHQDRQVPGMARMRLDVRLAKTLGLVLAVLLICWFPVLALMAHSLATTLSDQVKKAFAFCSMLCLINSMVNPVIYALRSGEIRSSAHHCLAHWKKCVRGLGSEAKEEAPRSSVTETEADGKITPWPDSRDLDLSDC

agonistic activity | SMILES | also measured
agonistic activity | O=C(Nc1ccc2ccccc2c1)N1CCCN(C(=O)c2ccc(Cl)cc2)CC1 [4-(4-Chloro-benzoyl)-[1,4]diazepane-1-carboxylic acid naphthalen-2-ylamide] | 
agonistic activity | CC(C)c1ccc(NC(=O)N2CCCN(C(=O)c3ccc(Cl)cc3)CC2)cc1 [4-(4-Chloro-benzoyl)-[1,4]diazepane-1-carboxylic acid (4-isopropyl-phenyl)-amide] | 
agonistic activity | CC(C)(C)CC(=O)N1CCCN(C(=O)Nc2ccc(C(C)(C)C)cc2)CC1 [4-(3,3-Dimethyl-butyryl)-[1,4]diazepane-1-carboxylic acid (4-tert-butyl-phenyl)-amide] | 
agonistic activity | CC(C)(C)c1ccc(NC(=O)N2CCCN(C(=O)CNc3ccccc3)CC2)cc1 [4-(2-Phenylamino-acetyl)-[1,4]diazepane-1-carboxylic acid (4-tert-butyl-phenyl)-amide] | 
agonistic activity | O=C(Nc1ccc(C(F)(F)F)cc1)N1CCCN(C(=O)c2ccccc2)CC1 [4-Benzoyl-[1,4]diazepane-1-carboxylic acid (4-trifluoromethyl-phenyl)-amide] | 
agonistic activity | CC(C)c1ccc(NC(=O)N2CCCN(C(=O)c3cccc(Cl)c3)CC2)cc1 [4-(3-Chloro-benzoyl)-[1,4]diazepane-1-carboxylic acid (4-isopropyl-phenyl)-amide] | 
agonistic activity | CC(C)(C)c1cc(NC(=O)N2CCCN(C(=O)c3ccc(Cl)cc3)CC2)no1 [4-(4-Chloro-benzoyl)-[1,4]diazepane-1-carboxylic acid (5-tert-butyl-isoxazol-3-yl)-amide] | 
agonistic activity | CC(C)c1ccc(NC(=O)N2CCCN(C(=O)CCC3CC3)CC2)cc1 [4-(3-Cyclopropyl-propionyl)-[1,4]diazepane-1-carboxylic acid (4-isopropyl-phenyl)-amide] | 
agonistic activity | CC(C)(C)c1ccc(NC(=O)N2CCCN(C(=O)CCC3CC3)CC2)cc1 [4-(3-Cyclopropyl-propionyl)-[1,4]diazepane-1-carboxylic acid (4-tert-butyl-phenyl)-amide] | 
agonistic activity | O=C(Nc1ccc(C(F)(F)F)cc1)N1CCCN(C(=O)c2ccc(F)cc2)CC1 [4-(4-Fluoro-benzoyl)-[1,4]diazepane-1-carboxylic acid (4-trifluoromethyl-phenyl)-amide] | 

The next lines start with the molecule.

SMILES | agonistic activity | also measured
O=C(CC1CCCC1)N1CCCN(C(=O)Nc2cccc(C(F)(F)F)c2)CC1 [4-(2-Cyclopentyl-acetyl)-[1,4]diazepane-1-carboxylic acid (3-trifluoromethyl-phenyl)-amide] | agonistic activity | 
CC(C)(C)c1cc(NC(=O)N2CCCN(C(=O)N3CCS(=O)(=O)CC3)CC2)on1 [4-(1,1-Dioxo-1λ^6-thiomorpholine-4-carbonyl)-[1,4]diazepane-1-carboxylic acid (3-tert-butyl-isoxazol-5-yl)-amide] | agonistic activity | 
CCc1ccc(NC(=O)N2CCCN(C(=O)CC3CCOCC3)CC2)cc1 [4-(2-Tetrahydro-pyran-4-yl-acetyl)-[1,4]diazepane-1-carboxylic acid (4-ethyl-phenyl)-amide] | agonistic activity | 
O=C(Nc1ccc(C(F)(F)F)cc1)N1CCCN(C(=O)c2ccc(C(F)(F)F)cc2)CC1 [Compound 127, 4-(4-Trifluoromethyl-benzoyl)-[1,4]diazepane-1-carboxylic acid (4-trifluomethyl-phenyl)-amide] |  | Emax [1]: 100%; pEC50 (read-out: hCB2 cAMP EC50): 7.12
COC1CCC(C(=O)N2CCCN(C(=O)Nc3cc(C(C)(C)C)on3)CC2)CC1 (centres unmarked) [Compound 155, 4-(4-Methoxy-cyclohexanecarbonyl)-[1,4]diazepane-1-carboxylic acid (5-tert-butyl-isoxazol-3-yl)-amide] |  | Emax (CHO): 101%; pEC50 (read-out: hCB2 cAMP EC50): 6.96
CC(C)c1ccc(NC(=O)N2CCCN(C(=O)c3ccc(Cl)cc3)CC2)cc1 [Compound 41, 4-(4-Chloro-benzoyl)-[1,4]diazepane-1-carboxylic acid (4-isopropyl-phenyl)-amide] |  | Emax [1]: 95%; pEC50 (read-out: hCB2 cAMP EC50): 7.37
O=C(CC1CCCC1)N1CCCN(C(=O)Nc2ccc(-c3ccccc3)cc2)CC1 [4-(2-Cyclopentyl-acetyl)-[1,4]diazepane-1-carboxylic acid (4-biphenyl)-amide] | agonistic activity | 
CSc1ccc(NC(=O)N2CCCN(C(=O)CC3CCCC3)CC2)cc1 [4-(2-Cyclopentyl-acetyl)-[1,4]diazepane-1-carboxylic acid (4-methylsulfanyl-phenyl)-amide] | agonistic activity | 
Cc1csc(NC(=O)N2CCCN(C(=O)C3CCOCC3)CC2)n1 [4-(Tetrahydro-pyran-4-carbonyl)-[1,4]diazepane-1-carboxylic acid (4-methyl-thiazol-2-yl)-amide] | agonistic activity | 
CC(C)(C)c1cc(NC(=O)N2CCCN(C(=O)C3CCOCC3)CC2)no1 [Compound 142, 4-(Tetrahydro-pyran-4-carbonyl)-[1,4]diazepane-1-carboxylic acid (5-tert-butyl-isoxazol-3-yl)-amide] |  | Emax (CHO): 110%
CC(C)(C)c1cc(NC(=O)N2CCCN(C(=O)C3CCC(=O)CC3)CC2)no1 [Compound 234, 4-(4-Oxo-cyclohexanecarbonyl)-[1,4]diazepane-1-carboxylic acid (5-tert-butyl-isoxazol-3-yl)-amide] |  | pEC50: 7.48; Emax (CHO): 100%
Cc1sc(NC(=O)N2CCCN(C(=O)C3CCOCC3)CC2)nc1C(C)(C)C [4-(Tetrahydro-pyran-4-carbonyl)-[1,4]diazepane-1-carboxylic acid (4-tert-butyl-5-methyl-thiazol-2-yl)-amide] | agonistic activity | 
CCCCc1ccc(NC(=O)N2CCCN(C(=O)CCC3CCCCC3)CC2)cc1 [4-(3-Cyclohexyl-propionyl)-[1,4]diazepane-1-carboxylic acid (4-butyl-phenyl)-amide] | agonistic activity | 
O=C(CC1CCCC1)N1CCCN(C(=O)Nc2ccc(Cl)cc2Cl)CC1 [4-(2-Cyclopentyl-acetyl)-[1,4]diazepane-1-carboxylic acid (2,4-dichloro-phenyl)-amide] | agonistic activity | 
CC(C)(C)c1ccc(NC(=O)N2CCCN(C(=O)CN3CCSCC3)CC2)cc1 [Compound 121, 4-(2-Thiomorpholin-4-yl-acetyl)-[1,4]diazepane-1-carboxylic acid (4-tert-butyl-phenyl)-amide] |  | Emax [1]: 103%; pEC50 (read-out: hCB2 cAMP EC50): 7.44
O=C(Nc1cc(-c2ccccc2)on1)N1CCCN(C(=O)C2CCOCC2)CC1 [4-(Tetrahydro-pyran-4-carbonyl)-[1,4]diazepane-1-carboxylic acid (5-phenyl-isoxazol-3-yl)-amide] | agonistic activity | 
O=C(CC1CCCC1)N1CCCN(C(=O)Nc2ccc(Cl)c(Cl)c2)CC1 [4-(2-Cyclopentyl-acetyl)-[1,4]diazepane-1-carboxylic acid (3,4-dichloro-phenyl)-amide] | agonistic activity | 
CCC(C)c1ccc(NC(=O)N2CCCN(C(=O)N3CCOCC3)CC2)cc1 (centres unmarked) [Compound 218, 4-(Morpholine-4-carbonyl)-[1,4]diazepane-1-carboxylic acid (4-sec-butyl-phenyl)-amide] |  | Emax [1]: 82%; pEC50 (read-out: hCB2 cAMP EC50): 7.70
CC(C)(C)c1cc(NC(=O)N2CCCN(C(=O)c3ccc(C(F)(F)F)cc3)CC2)no1 [Compound 154, 4-(4-Trifluoromethyl-benzoyl)-[1,4]diazepane-1-carboxylic acid (5-tert-butyl-isoxazol-3-yl)-amide] |  | pEC50: 8.82; Emax (CHO): 103%
CC(C)(C)c1cc(NC(=O)N2CCCN(C(=O)C3CCCCCC3)CC2)no1 [4-Cycloheptanecarbonyl-[1,4]diazepane-1-carboxylic acid (5-tert-butyl-isoxazol-3-yl)-amide] | agonistic activity | 
CCCCCc1ccc(NC(=O)N2CCCN(C(=O)CC3CCCC3)CC2)cc1 [4-(2-Cyclopentyl-acetyl)-[1,4]diazepane-1-carboxylic acid (4-n-pentyl-phenyl)-amide] | agonistic activity | 
CCC(C)c1ccc(NC(=O)N2CCCN(C(=O)CC3CCCC3)CC2)cc1 (centres unmarked) [Compound 52, 4-(2-Cyclopentyl-acetyl)-[1,4]diazepane-1-carboxylic acid (4-sec-butyl-phenyl)-amide] |  | pEC50: 8.15; Emax (CHO): 98%
CC(C)(C)c1cc(NC(=O)N2CCCN(C(=O)C3CCC(N)CC3)CC2)no1 (centres unmarked) [4-(4-Amino-cyclohexanecarbonyl)-[1,4]diazepane-1-carboxylic acid (5-tert-butyl-isoxazol-3-yl)-amide] | agonistic activity | 
O=C(CCC1CCCC1)N1CCCN(C(=O)NCC2CCCCC2)CC1 [4-(3-Cyclopentyl-propionyl)-[1,4]diazepane-1-carboxylic acid cyclohexylmethyl-amide] | agonistic activity | 
CC(C)(C)c1ccc(NC(=O)N2CCCN(C(=O)CCC(F)(F)F)CC2)cc1 [4-(4,4,4-Trifluoro-butyryl)-[1,4]diazepane-1-carboxylic acid (4-tert-butyl-phenyl)-amide] | agonistic activity | 
CC(C)(C)c1cccc(NC(=O)N2CCCN(C(=O)N3CCS(=O)(=O)CC3)CC2)c1 [4-(1,1-Dioxo-1λ^6-thiomorpholine-4-carbonyl)-[1,4]diazepane-1-carboxylic acid (3-tert-butyl-phenyl)-amide] | agonistic activity | 
CC(C)c1ccc(NC(=O)N2CCCN(C(=O)CC3CCCCC3)CC2)cc1 [Compound 36, 4-(2-Cyclohexyl-acetyl)-[1,4]diazepane-1-carboxylic acid (4-isopropyl-phenyl)-amide] |  | Emax [1]: 95%; pEC50 (read-out: hCB2 cAMP EC50): 7.54
CSc1ccc(NC(=O)N2CCCN(C(=O)CCC3CCCC3)CC2)cc1 [4-(3-Cyclopentyl-propionyl)-[1,4]diazepane-1-carboxylic acid (4-methylsulfanyl-phenyl)-amide] | agonistic activity | 
